Where two headings read alike, the source gives them in different places.
Legend:
[1] = target: LPS-induced mouse macrophage sialidase activity; settings: cited from earlier work
murine sialidases = settings: mice, cited from earlier work
human PBMC = assay: TGF-β1 accumulation by human PBMC (antibody staining and ELISA); type: cell-based; settings: inhibitor 3 μM; sialidases 200 ng/ml; 5 days; ELISA
Method: To determine if sialidases might cause cells to accumulate intracellular and extracellular TGF-β1, human PBMC were cultured with sialidases in 96 well plates at 5×10^5 cells/ml and 200 μl/well in FibroLife serum-free medium for five days, then air dried. The levels of TGF-β1 in or on the cells was detected by staining with an antibody against TGF-β1. Photomicrographs were analyzed by counting stained cells (FIG. 7B) and quantifying staining intensity using ImageJ (FIG. 7C).
PBMC were cultured in 96 well plates at 5×10^5 cells/ml and 200 μl/well in FibroLife serum-free medium. When the cells were plated, recombinant human sialidases were added to final concentrations of 200 ng/ml, and DANA or oseltamivir were added to 3 μM. After 5 days, culture supernatants were analyzed using a TGF-β1 ELISA kit (R&D Systems).

human sialidases = settings: all four human sialidases; carboxylate form; cited from earlier work
[2] = test system: mice with bleomycin-induced fibrosis; assay: mouse bleomycin model of pulmonary fibrosis; type: in vivo; settings: day 21
Method: The successful aspiration of bleomycin into the lungs was confirmed by listening for a crackling noise heard after the aspiration. Mice were weighed daily, and euthanized using CO2 following NIH guidelines at day 21 after bleomycin aspiration. The experiment was performed in accordance with the recommendations in the Guide for the Care and Use of Laboratory Animals of the National Institutes of Health. The Texas A&M University Animal Use and Care Committee approved the protocol.
The BALs were clarified by centrifugation at 500×g for 10 minutes, and the supernatants were transferred to Eppendorf tubes. The supernatants were flash frozen with liquid nitrogen, and stored at −20° C. until further use.
After collection of BAL fluid, mouse lungs were inflated with prewarmed Optimal Cutting Temperature (OCT) embedding medium (VWR, Radnor, PA) and then embedded in OCT, frozen on dry ice, and then stored at −80° C. 6-micron cryosections of mouse lungs were mounted on Superfrost Plus® microscope slides (VWR). The sections on the slides were allowed to air-dry for 24-48 hours. The slides were then fixed in acetone at room temperature for 20 minutes and air-dried for 10 minutes.
Then, starting 24 hours after bleomycin had been administered, the mice were given daily intraperitoneal injections of 10 mg/kg DANA (Calbiochem) in PBS or 10 mg/kg oseltamivir (Sigma) in PBS. Both inhibitors are quite polar and thus probably remain in the extracellular space. Assuming 2 ml of extracellular space in a 20 gram mouse, these doses would then be ˜3 μM. At day 21, mice were sacrificed and BAL and cryosections of lungs were obtained as described for Example 3. The experiment was performed in accordance with the recommendations in the Guide for the Care and Use of Laboratory Animals of the National Institutes of Health. The Texas A&M University Animal Use and Care Committee approved the protocol.
Treatment of mice with oropharyngeal bleomycin results in an initial inflammation, and then a fibrosis that has begun by day 10 after bleomycin treatment. To determine if sialidase inhibitors decrease fibrosis when treatment starts after the initial inflammation stage and when fibrosis is present, mice were treated with oropharyngeal bleomycin to induce symptoms of pulmonary fibrosis as described above. Then, starting 10 days after bleomycin had been administered, the mice were given daily intraperitoneal injections of 10 mg/kg DANA (Calbiochem) in PBS or 10 mg/kg oseltamivir (Sigma) in PBS. At day 21, mice were sacrificed and BAL and cryosections of lungs were obtained as described above. The experiment was performed in accordance with the recommendations in the Guide for the Care and Use of Laboratory Animals of the National Institutes of Health. The Texas A&M University Animal Use and Care Committee approved the protocol.
To determine if sialidase inhibitors could also reduce TGF-β1 levels in mice, mice were treated with bleomycin or saline, then injected daily with saline, DANA or oseltamivir starting at day 10 after bleomycin treatment, as described in Example 9. The mice were euthanized at day 21 and sections of lung tissue were stained for TGF-β1. Results are presented in FIG. 11A and are representative of results for three mice per group.

[3] = 10 mg/kg daily i.p. starting at day 10

For `CCC(CC)[C@H](NC(C)=O)[C@@H]1[C@H](O)[C@@H](C(=O)O)C[C@H]1N=C(N)N` [Compound 58, (1S,2S,3S,4R)-3-[(1S)-1-acetamido-2-ethyl-butyl]-4-(diaminomethylideneamino)-2-hydroxy-cyclopentane-1-carboxylic acid], the IC50 [1] is given as 1000 nM, the “inhibitor of murine sialidases” value (murine sialidases; listed as Oseltamivir) is given as “potent sialidase inhibitor in mice” and the “inhibitor of murine sialidases” value (murine sialidases; listed as oseltamivir) is given as “potent inhibitor”. For the same compound, the “effects of NEU2 and NEU3 on extracellular TGF-β1” value (human PBMC) was “blocked”, the “inhibitor of human sialidases” value (human sialidases) was “poor inhibitor” and the “collagen deposition in the lungs (Sirius red)” value ([2]; 10 mg/kg daily i.p. starting 24 hours after bleomycin) was “reduced”. For the same compound, the “collagen deposition in the lungs (Sirius red)” value [2, 3] was “reduced”, the “total protein in BAL” value [2, 3] was “attenuated” and the “TGF-β1 levels in lung tissue (staining)” value ([2]; daily injection starting at day 10) was “reduced TGF-β1 levels”.
